The test concerns the target T1, chicken gizzard smooth muscle myosin subfragment-1 chemically crosslinked to cardiac or skeletal actin (Gallus gallus, UniProt P10587).
T1 construct: chicken gizzard smooth muscle myosin subfragment-1; from tissue; host or cells: chicken gizzard
The test is described as follows: Smooth muscle myosin ATPase dose response assay (pyruvate kinase/horseradish peroxidase/pyruvate oxidase-coupled, amplex red fluorescence). The test is classed as biochemical. Conditions: read-out: IC50 Arithmetic Mean. The method in brief:
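Readout is amplex red signal from coupled ATPase of actin-crosslinked gizzard myosin S1 (0.15 mM ATP, 12 mM K-PIPES, pH 7.00). IC50 is the half-maximal activity point of a four-parameter Hill fit.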

T1 sequence (P02607 2-151): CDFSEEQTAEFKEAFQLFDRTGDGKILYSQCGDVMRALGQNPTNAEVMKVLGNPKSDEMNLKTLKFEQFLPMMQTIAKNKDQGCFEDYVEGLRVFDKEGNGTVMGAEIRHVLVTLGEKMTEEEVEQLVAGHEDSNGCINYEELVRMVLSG
T1 sequence (P10587 84-789): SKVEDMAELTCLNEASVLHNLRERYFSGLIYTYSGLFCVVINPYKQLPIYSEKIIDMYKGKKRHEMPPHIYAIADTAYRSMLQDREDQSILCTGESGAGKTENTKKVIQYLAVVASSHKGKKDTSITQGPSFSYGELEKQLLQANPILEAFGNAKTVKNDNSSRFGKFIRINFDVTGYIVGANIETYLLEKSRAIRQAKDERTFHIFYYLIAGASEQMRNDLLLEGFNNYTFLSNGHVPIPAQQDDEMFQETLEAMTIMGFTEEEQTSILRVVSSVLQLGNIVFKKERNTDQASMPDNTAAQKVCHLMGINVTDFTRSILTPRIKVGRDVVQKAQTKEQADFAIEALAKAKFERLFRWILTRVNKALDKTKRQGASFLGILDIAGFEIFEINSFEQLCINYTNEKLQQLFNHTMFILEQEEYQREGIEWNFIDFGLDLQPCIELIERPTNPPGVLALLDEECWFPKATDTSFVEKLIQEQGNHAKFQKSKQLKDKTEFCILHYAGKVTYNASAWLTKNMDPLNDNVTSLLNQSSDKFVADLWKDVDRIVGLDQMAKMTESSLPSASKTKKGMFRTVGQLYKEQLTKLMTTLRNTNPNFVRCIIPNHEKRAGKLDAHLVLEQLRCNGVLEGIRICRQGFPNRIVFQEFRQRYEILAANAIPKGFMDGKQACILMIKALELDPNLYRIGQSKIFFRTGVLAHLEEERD

Regarding `CC(C)(C)OC(=O)N1CC[C@@H]1CNC(=O)c1cc(F)c(-c2cn[nH]c2)nc1NCCc1cccc(F)c1` [tert-butyl (2R)-2-{[(5-fluoro-2-{[2-(3-fluorophenyl)ethyl]amino}-6-pyrazol-4-yl(3-pyridyl))carbonylamino]methyl}azetidinecarboxylate], the IC50 was determined as 0.289 µM.
Next, `CC(C)(C)OC(=O)N1CCC[C@@H]1CNC(=O)c1ccc(-c2ccccc2C#N)nc1NCCc1cccc(F)c1` [tert-butyl (2R)-2-{[(6-(2-cyanophenyl)-2-{[2-(3-fluorophenyl)ethyl]amino}(3-pyridyl))carbonylamino]methyl}pyrrolidinecarboxylate]: 1.93 µM; `CC(C)(C)OC(=O)N1CCC[C@@H]1CNC(=O)c1cc(F)c(-c2ccccc2C#N)nc1NCCc1cccc(F)c1` [tert-butyl (2R)-2-{[(6-(2-cyanophenyl)-5-fluoro-2-{[2-(3-fluorophenyl)ethyl]amino}(3-pyridyl))carbonylamino]methyl}pyrrolidinecarboxylate]: 9.04 µM.
To `CC(C)CCNc1nc(-c2ccccc2)ccc1C(=O)NCc1cccnc1` [{2-[3-methylbutyl)amino]-6-phenyl(3-pyridyl)}-N-(3-pyridylmethyl)carboxamide] belongs 2.48 µM; to `O=C(NCc1cccnc1)c1ccc(-c2ccccc2)nc1NCCC1OCCO1` [{2-[(2-(1,3-dioxolan-2-yl)ethyl)amino]-6-phenyl(3-pyridyl)}-N-(3-pyridylmethyl)carboxamide], 7.12 µM.
To `O=C(NCc1cccnc1)c1ccc(-c2ccccc2)nc1NCCc1ccco1` [{2-[(2-(2-furyl)ethyl)amino]-6-phenyl(3-pyridyl)}-N-(3-pyridylmethyl)carboxamide] belongs 0.294 µM; to `O=C(NCc1cccnc1)c1ccc(-c2nccs2)nc1NCCc1ccccn1` [{2-[(2-(2-pyridyl)ethyl)amino]-6-(1,3-thiazol-2-yl)(3-pyridyl)}-N-(3-pyridylmethyl)carboxamide], 8.66 µM; to `O=C(NCc1cccnc1)c1ccc(-c2cccs2)nc1NCCc1ccccn1` [{2-[(2-(2-pyridyl)ethyl)amino]-6-(2-thienyl)(3-pyridyl)}-N-(3-pyridylmethyl)carboxamide], 0.797 µM.
With `C=Cc1ccccc1-c1ccc(C(=O)NCc2cccnc2)c(NCCc2ccccn2)n1` [{2-[(2-(2-pyridyl)ethyl)amino]-6-(2-vinylphenyl)(3-pyridyl)}-N-(3-pyridylmethyl)carboxamide], the IC50 was determined as 5.34 µM.
Next, `O=C(NCc1cccnc1)c1ccc(-c2ccsc2)nc1NCCc1ccccn1` [{2-[(2-(2-pyridyl)ethyl)amino]-6-(3-thienyl)(3-pyridyl)}-N-(3-pyridylmethyl)carboxamide]: 0.414 µM; `O=C(NCc1cccnc1)c1ccc(-c2cccc(C(F)(F)F)c2)nc1NCCc1ccccn1` [{2-[(2-(2-pyridyl)ethyl)amino]-6-[3-(trifluoromethyl)phenyl](3-pyridyl)}-N-(3-pyridylmethyl)carboxamide]: 5.93 µM; `O=C(NCc1cccnc1)c1ccc(-c2ccc(C(F)(F)F)cc2)nc1NCCc1ccccn1` [{2-[(2-(2-pyridyl)ethyl)amino]-6-[4-(trifluoromethyl)phenyl](3-pyridyl)}-N-(3-pyridylmethyl)carboxamide]: 2.29 µM.
Next, `O=C(NCc1cccnc1)c1ccc(-c2ccccc2)nc1NCCC1=CCCCC1` [{2-[(2-cyclohex-1-enylethyl)amino]-6-phenyl(3-pyridyl)}-N-(3-pyridylmethyl)carboxamide]: 0.532 µM; `O=C(NCc1cccnc1)c1ccc(-c2ccccc2)nc1NCCC1CCCCC1` [{2-[(2-cyclohexylethyl)amino]-6-phenyl(3-pyridyl)}-N-(3-pyridylmethyl)carboxamide]: 1.85 µM.
Next, `O=C(NCc1cccnc1)c1ccc(-c2ccccc2)nc1NCC(O)c1ccccc1` (centres unmarked) [{2-[(2-hydroxy-2-phenylethyl)amino]-6-phenyl(3-pyridyl)}-N-(3-pyridylmethyl)carboxamide]: 1.94 µM.
Turning to `O=C(NCc1cccnc1)c1ccc(-c2ccccc2)nc1NCCc1c[nH]cn1` [{2-[(2-imidazol-4-ylethyl)amino]-6-phenyl(3-pyridyl)}-N-(3-pyridylmethyl)carboxamide], the IC50 came to 9.77 µM.
Next, `O=C(NCc1cccnc1)c1ccc(-c2ccccc2)nc1NCCN1CCOCC1` [{2-[(2-morpholin-4-ylethyl)amino]-6-phenyl(3-pyridyl)}-N-(3-pyridylmethyl)carboxamide]: 37.3 µM; `O=C(NCc1cccnc1)c1ccc(-c2ccccc2)nc1NCCCn1ccnc1` [{2-[(3-imidazolylpropyl)amino]-6-phenyl(3-pyridyl)}-N-(3-pyridylmethyl)carboxamide]: 30.3 µM; `C[C@@H](CNc1nc(-c2ccccc2)ccc1C(=O)NCc1cccnc1)c1ccccc1` [{2-[((2R)-2-phenylpropyl)amino]-6-phenyl(3-pyridyl)}-N-(3-pyridylmethyl)carboxamide]: 17.3 µM.
To `O=C(NCc1cccnc1)c1ccc(-c2ccccc2)nc1NCC1CCCO1` (centres unmarked) [{2-[(oxolan-2-ylmethyl)amino]-6-phenyl(3-pyridyl)}-N-(3-pyridylmethyl)carboxamide] belongs 4.83 µM.
Next, `O=C(NCc1cccnc1)c1cc(F)c(-c2cn[nH]c2)nc1NCCn1cccn1` [{5-fluoro-6-pyrazol-4-yl-2-[(2-pyrazolylethyl)amino](3-pyridyl)}-N-(3-pyridylmethyl)carboxamide]: 0.211 µM; `Cn1cc(-c2ccc(C(=O)NCc3cccnc3)c(NCCc3ccccn3)n2)cn1` [{6-(1-methylpyrazol-4-yl)-2-[(2-(2-pyridyl)ethyl)amino](3-pyridyl)}-N-(3-pyridylmethyl)carboxamide]: 2.53 µM.
With `Cc1cccc(-c2ccc(C(=O)NCc3cccnc3)c(NCCc3ccccn3)n2)c1C` [{6-(2,3-dimethylphenyl)-2-[(2-(2-pyridyl)ethyl)amino](3-pyridyl)}-N-(3-pyridylmethyl)carboxamide], the IC50 was 6.94 µM.
To `Cc1ccc(-c2ccc(C(=O)NCc3cccnc3)c(NCCc3ccccn3)n2)c(C)c1` [{6-(2,4-dimethylphenyl)-2-[(2-(2-pyridyl)ethyl)amino](3-pyridyl)}-N-(3-pyridylmethyl)carboxamide] belongs 3.96 µM; to `Cc1ccc(C)c(-c2ccc(C(=O)NCc3cccnc3)c(NCCc3ccccn3)n2)c1` [{6-(2,5-dimethylphenyl)-2-[(2-(2-pyridyl)ethyl)amino](3-pyridyl)}-N-(3-pyridylmethyl)carboxamide], 13.6 µM.
For the compound `O=C(NCc1cccnc1)c1ccc(-c2ccccc2Cl)nc1NCCc1ccccn1` [{6-(2-chlorophenyl)-2-[(2-(2-pyridyl)ethyl)amino](3-pyridyl)}-N-(3-pyridylmethyl)carboxamide], the half-inhibitory concentration (IC50) was 4.44 µM.
To `N#Cc1ccccc1-c1ccc(C(=O)NCc2cccnc2)c(NCCc2ccco2)n1` [{6-(2-cyanophenyl)-2-[(2-(2-furyl)ethyl)amino](3-pyridyl)}-N-(3-pyridylmethyl)carboxamide] belongs 0.065 µM; to `N#Cc1ccccc1-c1ccc(C(=O)NCc2cccnc2)c(NCCc2ccccn2)n1` [{6-(2-cyanophenyl)-2-[(2-(2-pyridyl)ethyl)amino](3-pyridyl)}-N-(3-pyridylmethyl)carboxamide], 0.46 µM; to `N#Cc1ccccc1-c1ccc(C(=O)NCc2cccnc2)c(NCCc2cccs2)n1` [{6-(2-cyanophenyl)-2-[(2-(2-thienyl)ethyl)amino](3-pyridyl)}-N-(3-pyridylmethyl)carboxamide], 0.029 µM.
Next, `N#Cc1ccccc1-c1ccc(C(=O)NCc2cccnc2)c(NCCC2CCCO2)n1` (centres unmarked) [{6-(2-cyanophenyl)-2-[(2-oxolan-2-ylethyl)amino](3-pyridyl)}-N-(3-pyridylmethyl)carboxamide]: 0.92 µM; `O=C(NCc1cccnc1)c1ccc(-c2ccccc2F)nc1NCCc1ccccn1` [{6-(2-fluorophenyl)-2-[(2-(2-pyridyl)ethyl)amino](3-pyridyl)}-N-(3-pyridylmethyl)carboxamide]: 1.32 µM.
Regarding `O=Cc1ccccc1-c1ccc(C(=O)NCc2cccnc2)c(NCCc2ccccn2)n1` [{6-(2-formylphenyl)-2-[(2-(2-pyridyl)ethyl)amino](3-pyridyl)}-N-(3-pyridylmethyl)carboxamide], the 50% inhibitory concentration (IC50) was found to be 8.75 µM.
To `O=C(NCc1cccnc1)c1ccc(-c2ccccc2O)nc1NCCc1ccccn1` [{6-(2-hydroxyphenyl)-2-[(2-(2-pyridyl)ethyl)amino](3-pyridyl)}-N-(3-pyridylmethyl)carboxamide] belongs 2.17 µM; to `COc1ccccc1-c1ccc(C(=O)NCc2cccnc2)c(NCCc2ccccn2)n1` [{6-(2-methoxyphenyl)-2-[(2-(2-pyridyl)ethyl)amino](3-pyridyl)}-N-(3-pyridylmethyl)carboxamide], 17.9 µM.
Next, `Cc1ccccc1-c1ccc(C(=O)NCc2cccnc2)c(NCCc2ccccn2)n1` [{6-(2-methylphenyl)-2-[(2-(2-pyridyl)ethyl)amino](3-pyridyl)}-N-(3-pyridylmethyl)carboxamide]: 11 µM; `O=C(NCc1cccnc1)c1ccc(-c2ccc(Cl)c(Cl)c2)nc1NCCc1ccccn1` [{6-(3,4-dichlorophenyl)-2-[(2-(2-pyridyl)ethyl)amino](3-pyridyl)}-N-(3-pyridylmethyl)carboxamide]: 3.37 µM.
As for `O=C(NCc1cccnc1)c1ccc(-c2ccc(F)c(F)c2)nc1NCCc1ccccn1` [{6-(3,4-difluorophenyl)-2-[(2-(2-pyridyl)ethyl)amino](3-pyridyl)}-N-(3-pyridylmethyl)carboxamide], the 50% inhibitory concentration (IC50) came to 1.21 µM.
To `Cc1ccc(-c2ccc(C(=O)NCc3cccnc3)c(NCCc3ccccn3)n2)cc1C` [{6-(3,4-dimethylphenyl)-2-[(2-(2-pyridyl)ethyl)amino](3-pyridyl)}-N-(3-pyridylmethyl)carboxamide] belongs 3.38 µM.

Usually IC50 stands for the concentration that gives 50% inhibition.

Values taken from patent publication US7932270B2 (Cytokinetics, Inc., priority 2006, dated 2011).
